The values that follow come from patent publication US6809065B2, “Herbicide containing substituted pyrazole derivative as active ingredient” (SDS Biotech K.K., priority 2001, dated 2004).

In data set [1] the test system is Chenopodium album. The data set is described as follows: Upland field foliage treatment (Test Example 1). The data set is classed as in vivo. Conditions: foliage treatment 14th day after sowing, wettable powder, 1 kg active ingredient per hectare, evaluated 21st day after application. An outline of the steps: (§1)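 Scored on an index 21 days after treatment: a high value on weeds means more herbicidal effect, and a low value on crops means more crop safety. Treatment was a foliar spray of water-diluted wettable powder at 1 kg a.i./ha, applied to plants 14 days after sowing in upland soil.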

In data set [2] the test system is Digitaria adscendens. The experiment in a line: Upland field foliage treatment (Test Example 1). The class given is in vivo. Conditions: foliage treatment 14th day after sowing, wettable powder, 1 kg active ingredient per hectare, evaluated 21st day after application. An outline of the steps: as §1
The test system of data set [3] is Setaria viridis. The experiment in a line: Upland field foliage treatment (Test Example 1). The data set is classed as in vivo. The settings on record: foliage treatment 14th day after sowing, wettable powder, 1 kg active ingredient per hectare, evaluated 21st day after application. In outline:
as §1

Data set [4] relates to Stellaria media. The experiment in a line: Upland field foliage treatment (Test Example 1). The class given is in vivo. Conditions: foliage treatment 14th day after sowing, wettable powder, 1 kg active ingredient per hectare, evaluated 21st day after application. In outline: as §1
In data set [5] the test system is soybean (Glycine max). The data set is described as follows: Upland field foliage treatment (Test Example 1), crop. The settings on record: foliage treatment 14th day after sowing, 1 kg active ingredient per hectare, evaluated 21st day, lower index = higher safety. The data set is classed as in vivo. An outline of the steps:
as §1

The test system of data set [6] is wheat (Triticum aestivum). The data set is described as above. The class given is in vivo. The settings on record: foliage treatment 14th day after sowing, 1 kg active ingredient per hectare, evaluated 21st day, lower index = higher safety. An outline of the steps: as §1
Data set [7] concerns Chenopodium album. The data set is described as follows: Upland soil treatment (Test Example 2). The class given is in vivo. The settings on record: soil surface treatment next day after sowing, wettable powder, 1 kg active ingredient per hectare, evaluated 21st day after application. An outline of the steps:
(§2)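 Scored 21 days post-application on an index scale where higher values mean greater herbicidal effect on weeds and lower values mean greater crop safety. Treatment was a water-diluted wettable powder sprayed evenly onto the soil surface at 1 kg active ingredient per hectare, one day after seeding.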

The subject of data set [8] is Digitaria adscendens. The data set is described as follows: Upland soil treatment (Test Example 2). The class given is in vivo. Conditions: soil surface treatment next day after sowing, wettable powder, 1 kg active ingredient per hectare, evaluated 21st day after application. In outline:
as §2

The test system of data set [9] is Setaria viridis. The data set is described as follows: Upland soil treatment (Test Example 2). The data set is classed as in vivo. The settings on record: soil surface treatment next day after sowing, wettable powder, 1 kg active ingredient per hectare, evaluated 21st day after application. An outline of the steps:
as §2

For data set [10], the system named is Stellaria media. The experiment in a line: Upland soil treatment (Test Example 2). The class given is in vivo. Conditions: soil surface treatment next day after sowing, wettable powder, 1 kg active ingredient per hectare, evaluated 21st day after application. An outline of the steps: as §2
In data set [11] the test system is soybean (Glycine max). The experiment in a line: Upland soil treatment (Test Example 2), crop. The data set is classed as in vivo. Conditions: soil surface treatment next day after sowing, 1 kg active ingredient per hectare, evaluated 21st day, lower index = higher safety. An outline of the steps:
as §2

In data set [12] the test system is wheat (Triticum aestivum). The data set is described as follows: Upland soil treatment (Test Example 2), crop. The data set is classed as in vivo. Conditions: soil surface treatment next day after sowing, 1 kg active ingredient per hectare, evaluated 21st day, lower index = higher safety. An outline of the steps: as §2
The next data set relates to Echinochloa spp. The data set is described as follows: Paddy field treatment (Test Example 3). The class given is in vivo, Echinochloa crusgalli. Conditions: paddy pot, submerged 4 cm, dropped on water surface 10th day after transplantation, 1 kg active ingredient per hectare, evaluated 21st day. An outline of the steps:
(§3)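 Index scoring of herbicidal effect and rice safety 21 days after treatment. The wettable powder, dosed at 1 kg a.i./ha, was dripped onto flooded pots (4 cm water) 10 days after transplanting two-leaf Koshihikari rice. Weed seeds had been sown into the puddled soil.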

A further data set concerns Ammannia multiflora. The data set is described as follows: Paddy field treatment (Test Example 3). Conditions: paddy pot, submerged 4 cm, dropped on water surface 10th day after transplantation, 1 kg active ingredient per hectare, evaluated 21st day. The data set is classed as in vivo. In outline: as §3
For another data set, the system named is Monochoria vaginalis. The experiment in a line: Paddy field treatment (Test Example 3). The class given is in vivo. Conditions: paddy pot, submerged 4 cm, dropped on water surface 10th day after transplantation, 1 kg active ingredient per hectare, evaluated 21st day. In outline: as §3
In a further data set the test system is Scirpus juncoides. The experiment in a line: Paddy field treatment (Test Example 3). The class given is in vivo. Conditions: paddy pot, submerged 4 cm, dropped on water surface 10th day after transplantation, 1 kg active ingredient per hectare, evaluated 21st day. An outline of the steps:
as §3

Data set [13] deals with rice (Oryza sative, variety: Koshihikari). The experiment in a line: Paddy field treatment (Test Example 3), crop. The data set is classed as in vivo, Oryza sativa. Conditions: transplanted rice two-leaf period, water surface treatment 10th day after transplantation, 1 kg active ingredient per hectare, evaluated 21st day, lower index = higher safety. An outline of the steps: as §3

For `COC=C(Cn1nc(-c2ccccc2)c(Cl)c1SC)C(=O)OC` [Compound 41], the “Herbicidal activity Chenopodium album” value in the data set with Chenopodium album [1] was 4 (herbicidal effect of not less than 70% by weight and less than 90% by weight); in the data set on Chenopodium album [7] it was 4 (herbicidal effect of not less than 70% by weight and less than 90% by weight). In addition, the “Herbicidal activity Digitaria adscendens” value in the data set with Digitaria adscendens [2] is 4 (herbicidal effect of not less than 70% by weight and less than 90% by weight); in the data set with Digitaria adscendens [8] it was 4 (herbicidal effect of not less than 70% by weight and less than 90% by weight). Besides, the “Herbicidal activity Setaria viridis” value in the data set on Setaria viridis [3] is 4 (herbicidal effect of not less than 70% by weight and less than 90% by weight); in the data set on Setaria viridis [9], 4 (herbicidal effect of not less than 70% by weight and less than 90% by weight). In addition, the “Herbicidal activity Stellaria media” value with Stellaria media [4] was 4 (herbicidal effect of not less than 70% by weight and less than 90% by weight); in the data set with Stellaria media [10] it was 4 (herbicidal effect of not less than 70% by weight and less than 90% by weight). Moreover, the “Herbicidal activity Glycine max” value in the data set with soybean (Glycine max) [5] was 0 (herbicidal effect of not less than 0% by weight and less than 10% by weight); in the data set on soybean (Glycine max) [11] it was 0 (herbicidal effect of not less than 0% by weight and less than 10% by weight). In addition, the “Herbicidal activity Triticum aestivum” value in [6] was 0 (herbicidal effect of not less than 0% by weight and less than 10% by weight); in data set [12], 0 (herbicidal effect of not less than 0% by weight and less than 10% by weight). In addition, the “Herbicidal activity Echinochloa spp.” value in the data set on Echinochloa spp. was 4 (herbicidal effect of not less than 70% by weight and less than 90% by weight). For the same molecule, the “Herbicidal activity Ammannia multiflora” value with Ammannia multiflora is 3 (herbicidal effect of not less than 50% by weight and less than 70% by weight). Also, the “Herbicidal activity Monochoria vaginalis” value with Monochoria vaginalis was 3 (herbicidal effect of not less than 50% by weight and less than 70% by weight). In addition, the “Herbicidal activity Scirpus juncoides” value with Scirpus juncoides is 3 (herbicidal effect of not less than 50% by weight and less than 70% by weight). In addition, the “Herbicidal activity Oryza sativa” value in data set [13] was 0 (herbicidal effect of not less than 0% by weight and less than 10% by weight).

For the molecule `COC=C(Cn1nc(-c2cccc(Cl)c2)c(C)c1C)C(=O)OC` [Compound 34], the “Herbicidal activity Chenopodium album” value in the data set with Chenopodium album [1] is 5 (herbicidal effect of not less than 90% by weight); in the data set on Chenopodium album [7] it was 4 (herbicidal effect of not less than 70% by weight and less than 90% by weight). Besides, the “Herbicidal activity Digitaria adscendens” value in the data set with Digitaria adscendens [2] was 5 (herbicidal effect of not less than 90% by weight); in the data set on Digitaria adscendens [8], 4 (herbicidal effect of not less than 70% by weight and less than 90% by weight). The “Herbicidal activity Setaria viridis” value with Setaria viridis [3] was 4 (herbicidal effect of not less than 70% by weight and less than 90% by weight); in the data set on Setaria viridis [9], 4 (herbicidal effect of not less than 70% by weight and less than 90% by weight). Besides, the “Herbicidal activity Stellaria media” value in the data set on Stellaria media [4] is 4 (herbicidal effect of not less than 70% by weight and less than 90% by weight); in the data set with Stellaria media [10], 4 (herbicidal effect of not less than 70% by weight and less than 90% by weight). Further, the “Herbicidal activity Glycine max” value was 1 (herbicidal effect of not less than 10% by weight and less than 30% by weight) in the data set on soybean (Glycine max) [5]; 0 (herbicidal effect of not less than 0% by weight and less than 10% by weight) in the data set on soybean (Glycine max) [11]. Further, the “Herbicidal activity Triticum aestivum” value in data set [6] was 1 (herbicidal effect of not less than 10% by weight and less than 30% by weight); in data set [12], 0 (herbicidal effect of not less than 0% by weight and less than 10% by weight). In addition, the “Herbicidal activity Echinochloa spp.” value in the data set on Echinochloa spp. was 3 (herbicidal effect of not less than 50% by weight and less than 70% by weight). Also, the “Herbicidal activity Ammannia multiflora” value with Ammannia multiflora was 3 (herbicidal effect of not less than 50% by weight and less than 70% by weight). Further, in the data set on Monochoria vaginalis, the “Herbicidal activity Monochoria vaginalis” value is 5 (herbicidal effect of not less than 90% by weight). The “Herbicidal activity Scirpus juncoides” value with Scirpus juncoides is 3 (herbicidal effect of not less than 50% by weight and less than 70% by weight). In addition, the “Herbicidal activity Oryza sativa” value in data set [13] was 0 (herbicidal effect of not less than 0% by weight and less than 10% by weight).

Consider `COC=C(Cn1nc(-c2ccccc2)cc1C)C(=O)OC` [Compound 2], for which the “Herbicidal activity Chenopodium album” value in the data set with Chenopodium album [1] was 4 (herbicidal effect of not less than 70% by weight and less than 90% by weight); in the data set with Chenopodium album [7] it was 4 (herbicidal effect of not less than 70% by weight and less than 90% by weight). The “Herbicidal activity Digitaria adscendens” value in the data set on Digitaria adscendens [2] was 4 (herbicidal effect of not less than 70% by weight and less than 90% by weight); with Digitaria adscendens [8] it was 4 (herbicidal effect of not less than 70% by weight and less than 90% by weight). In addition, the “Herbicidal activity Setaria viridis” value in the data set with Setaria viridis [3] is 4 (herbicidal effect of not less than 70% by weight and less than 90% by weight); in the data set on Setaria viridis [9] it was 4 (herbicidal effect of not less than 70% by weight and less than 90% by weight). The “Herbicidal activity Stellaria media” value is 4 (herbicidal effect of not less than 70% by weight and less than 90% by weight) in the data set with Stellaria media [4]; 4 (herbicidal effect of not less than 70% by weight and less than 90% by weight) in the data set on Stellaria media [10]. The “Herbicidal activity Glycine max” value was 0 (herbicidal effect of not less than 0% by weight and less than 10% by weight) with soybean (Glycine max) [5]; 0 (herbicidal effect of not less than 0% by weight and less than 10% by weight) with soybean (Glycine max) [11]. In addition, the “Herbicidal activity Triticum aestivum” value is 0 (herbicidal effect of not less than 0% by weight and less than 10% by weight) in data set [6]; 0 (herbicidal effect of not less than 0% by weight and less than 10% by weight) in data set [12]. Also, the “Herbicidal activity Echinochloa spp.” value with Echinochloa spp. is 3 (herbicidal effect of not less than 50% by weight and less than 70% by weight). Besides, in the data set with Ammannia multiflora, the “Herbicidal activity Ammannia multiflora” value is 3 (herbicidal effect of not less than 50% by weight and less than 70% by weight). In addition, the “Herbicidal activity Monochoria vaginalis” value with Monochoria vaginalis was 3 (herbicidal effect of not less than 50% by weight and less than 70% by weight). In the data set with Scirpus juncoides, the “Herbicidal activity Scirpus juncoides” value is 3 (herbicidal effect of not less than 50% by weight and less than 70% by weight). Further, the “Herbicidal activity Oryza sativa” value in data set [13] was 0 (herbicidal effect of not less than 0% by weight and less than 10% by weight).
